Assay results reported in patent US11130960B2, “Methods for conferring or enhancing herbicide resistance on plants and/or alga with protoporphyrinogen oxidase variants” (FARM HANNONG CO., LTD., priority 2014, dated 2021).

Tests used:
[1] = biological target: T1, Mutant AtPPO1 (Arabidopsis thaliana, UniProt P55826, S305L/Y426M); assay: Growth of transformed BT3(ΔPPO) E. coli in LB liquid medium (OD600); format: cell-based; conditions: 37° C., OD600 over culture time
T1 construct: expressed in transfected cells; host or cells: E. coli BT3(ΔPPO), pACBB vector
Experimental: (§1) In Example 3, herbicide resistance of respective BT3(ΔPPO) strains transformed with the wild-type AtPPO1, mutant AtPPO1, CyPPO2, CyPPO4 or CyPPO8 gene was investigated on agar media containing different herbicides, and in this Example, herbicide resistance of the strains was investigated in LB liquid media containing different herbicides.
(§2) HV-50 autoclave from Hirayama, HS2100A electronic scale from Hansung Instrument, CB-30V clean bench from Jeio Tech, JSI-200CL incubator from JSR, MQ-200 photometer from Apogee, and 1210 type UV-visible spectrophotometer from Thermo Fisher Scientific were used. The autoclave was used under conditions of 121° C. and 15 minutes, and the incubator was used at 37° C. with lighting of 160˜200 μmol m^−2s^−1 for a culture time of 13.5 hours. The UV-visible spectrophotometer was used at 600 nm.
(§3) Tiafenacil (M.W. 511.87 g/mol), Saflufenacil (M.W. 500.85 g/mol), and Fomesafen (M.W. 438.76 g/mol) used in the experiment were purchased from Dongbu Farm Hannong Co., Ltd, Sigma, and Sigma, respectively. These drugs were prepared at 200 mM concentration in 100% acetone, and stored at −20° C., respectively. Luria-Bertani(LB) medium (10 g/L of Bacto-Tryptone, 5 g/L of Yeast extract, 10 g/L of sodium chloride) and an antibiotic Chloramphenicol (Duchefa) were used.
(§4) For seed culture of E. coli transformed with respective genes, single colonies thereof were cultured in 3 ml of LB broth containing chloramphenicol for 12 hours, and they were diluted with LB broth to absorbance (OD600) of 1.5. Next, chloramphenicol and 500 μl of the seed culture of the transformed E. coli were added to 250 ml of LB liquid medium, and 50 ml of the culture was added to each 250 ml-flask. Each flask was treated with varying concentrations (0, 10 μM, 50 μM, 100 μM) of herbicide stocks (Tiafenacil, Saflufenacil, Fomesafen), and then incubated at 37° C. and 200 rpm. Absorbance (OD600) was measured using a spectrophotometer every 1.5 hours. The experiment was repeated three times, and mean values thereof were given in a graph. Error bars represent standard error of three repeats.

[2] = biological target: T2, wild-type AtPPO1 (Arabidopsis thaliana, UniProt P55826); assay: as above; format: cell-based; conditions: 37° C., OD600 over culture time
T2 construct: expressed in transfected cells; host or cells: E. coli BT3(ΔPPO), pACBB vector
T2 sequence (P55826 35-537): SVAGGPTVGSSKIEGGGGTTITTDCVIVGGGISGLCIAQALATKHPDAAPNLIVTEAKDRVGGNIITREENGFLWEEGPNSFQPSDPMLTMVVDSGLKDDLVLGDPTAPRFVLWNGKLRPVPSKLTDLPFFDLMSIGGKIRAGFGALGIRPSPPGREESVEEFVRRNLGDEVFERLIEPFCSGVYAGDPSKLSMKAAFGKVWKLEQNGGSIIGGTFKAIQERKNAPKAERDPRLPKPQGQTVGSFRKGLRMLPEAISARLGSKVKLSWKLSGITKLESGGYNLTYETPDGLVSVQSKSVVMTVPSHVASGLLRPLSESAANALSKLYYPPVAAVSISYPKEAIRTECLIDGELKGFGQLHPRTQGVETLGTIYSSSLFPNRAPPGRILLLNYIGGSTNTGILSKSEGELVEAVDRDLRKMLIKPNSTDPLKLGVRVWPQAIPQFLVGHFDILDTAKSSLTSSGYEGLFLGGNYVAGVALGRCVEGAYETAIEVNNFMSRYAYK
Experimental: as §1, §2, §3, §4

[3] = system: CyPPO2; assay: as above; format: cell-based, Oscillatoria nigro-viridis PCC 7112; conditions: 37° C., OD600 over culture time
Experimental: as §1, §2, §3, §4

[4] = system: CyPPO4; assay: as above; format: cell-based, Lyngbya sp. PCC 8106; conditions: 37° C., OD600 over culture time
Experimental: as §1, §2, §3, §4

[5] = system: CyPPO8; assay: as above; format: cell-based, Halothece sp. PCC 7418; conditions: 37° C., OD600 over culture time
Experimental: as §1, §2
Tiafenacil (M.W. 511.87 g/mol), Saflufenacil (M.W. 500.85 g/mol), and Fomesafen (M.W. 438.76 g/mol) used in the experiment were purchased from Dongbu Farm Hannong Co., Ltd, Sigma, and Sigma, respectively. […]
For seed culture of E. coli transformed with respective genes, single colonies thereof were cultured in 3 ml of LB broth containing chloramphenicol for 12 hours, and they were diluted with LB broth to absorbance (OD600) of 1.5. […] Absorbance (OD600) was measured using a spectrophotometer every 1.5 hours. […]

[6] = system: wild-type Col-0 plants; assay: Herbicide spray test on Arabidopsis thaliana plants; format: in vivo; conditions: for outcome of plants at 7 days after spraying: 2-3 ml of 0.5 μM Tiafenacil, 1 μM Saflufenacil, or 3 μM Fomesafen per plant grown about 4 weeks
Experimental: To examine resistance of the transplanted T1 plants against PPO-based herbicides, the plants were grown for about 3-4 weeks, and then treated with herbicides prior to flower stalk elongation. […] Therefore, 1 μM tiafenacil was evenly applied at an amount proper for the number of plant individuals. After 7 days, resistance of the transformants against PPO-based herbicides was examined.
(§5) To examine whether herbicide resistance traits are maintained in the next generations of plants, respective T2 generation plants of Arabidopsis thaliana which were transformed with CyPPO2, CyPPO4 and CyPPO8 genes were subjected to an herbicide resistance test. 2-3 ml of 0.5 μM Tiafenacil, 1 μM Saflufenacil, or 3 μM Fomesafen was sprayed onto each Arabidopsis thaliana plant grown for about 4 weeks.

[7] = system: mutant AtPPO1 transformant; assay: Herbicide spray test on Arabidopsis thaliana T2 plants; format: in vivo; conditions: 2-3 ml of 0.5 μM Tiafenacil, 1 μM Saflufenacil, or 3 μM Fomesafen per plant
[8] = system: CyPPO2 transformant; assay: as above; format: in vivo; conditions: 2-3 ml of 0.5 μM Tiafenacil, 1 μM Saflufenacil, or 3 μM Fomesafen per plant
Experimental: as §5

[9] = system: CyPPO4 transformant; assay: as above; format: in vivo; conditions: 2-3 ml of 0.5 μM Tiafenacil, 1 μM Saflufenacil, or 3 μM Fomesafen per plant
Experimental: as §5

[10] = system: CyPPO8 transformant; assay: as above; format: in vivo; conditions: 2-3 ml of 0.5 μM Tiafenacil, 1 μM Saflufenacil, or 3 μM Fomesafen per plant
Experimental: as §5

T1 sequence (P55826 35-537 S305L/Y426M): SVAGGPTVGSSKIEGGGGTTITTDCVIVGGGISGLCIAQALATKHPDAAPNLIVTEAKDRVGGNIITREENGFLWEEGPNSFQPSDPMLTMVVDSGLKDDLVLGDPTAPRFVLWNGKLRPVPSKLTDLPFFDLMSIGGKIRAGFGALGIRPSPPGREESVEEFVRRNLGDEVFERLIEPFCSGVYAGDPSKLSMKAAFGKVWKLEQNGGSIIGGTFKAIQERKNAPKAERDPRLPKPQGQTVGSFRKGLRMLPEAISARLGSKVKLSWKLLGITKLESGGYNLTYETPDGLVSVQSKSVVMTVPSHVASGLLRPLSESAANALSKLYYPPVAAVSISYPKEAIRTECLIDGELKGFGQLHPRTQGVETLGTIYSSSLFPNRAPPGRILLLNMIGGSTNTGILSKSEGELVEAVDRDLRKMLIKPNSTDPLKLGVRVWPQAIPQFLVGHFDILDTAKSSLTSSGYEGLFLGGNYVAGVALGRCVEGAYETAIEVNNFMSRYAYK

Structure (SMILES) | concentration by which the strain normally grew [1] [µM] | concentration at which growth inhibition began [2] [µM] | concentration by which the strain normally grew [3] [µM] | concentration by which the strain normally grew [4] [µM] | concentration by which the strain normally grew [5] [µM] | outcome of plants at 7 days after spraying [6] | outcome of plants at 7 days after spraying [7] | outcome of plants at 7 days after spraying [8] | outcome of plants at 7 days after spraying [9] | outcome of plants at 7 days after spraying [10] | concentration at which the strain hardly grew [2] [µM] | concentration at which growth inhibition was observed [1] [µM] | concentration at which the strain grew [1] [µM] | outcome of plants after herbicide treatment ([6]; 2-3 ml of 1 μM tiafenacil (+0.05% Silwet L-77) per plant)
CS(=O)(=O)NC(=O)c1cc(Oc2ccc(C(F)(F)F)cc2Cl)ccc1[N+](=O)[O-] [Fomesafen] | ≤ 100 | 50 | ≤ 100 | ≤ 100 | ≤ 100 | killed | continued to grow without damage | continued to grow without damage | continued to grow without damage | continued to grow without damage | – | – | – | –
CC(C)N(C)S(=O)(=O)NC(=O)c1cc(-n2c(=O)cc(C(F)(F)F)n(C)c2=O)c(F)cc1Cl [Saflufenacil] | ≤ 100 | – | ≤ 100 | ≤ 100 | ≤ 100 | killed | continued to grow without damage | continued to grow without damage | continued to grow without damage | continued to grow without damage | ≥ 10 | – | – | –
COC(=O)CCNC(=O)C(C)Sc1cc(-n2c(=O)cc(C(F)(F)F)n(C)c2=O)c(F)cc1Cl (stereo not shown) [Tiafenacil] | – | – | ≤ 100 | ≤ 100 | – | killed | continued to grow without damage | continued to grow without damage | continued to grow without damage | continued to grow without damage | ≥ 10 | ≥ 50 | 10 | killed
